In patent US20080112968A1, “NICOTINAMIDE COMPOSITIONS FOR TREATMENT OF SKIN DISEASES AND DISORDERS” (Dermena, priority 2006, published 2008):

Assay: Binding of pyridinium salts to sepharose immobilized heparin (spectrophotometric degree of binding)
Settings: water solution incubated 5 minutes with sepharose immobilized heparin 25 mg/mL
Text: Spectrophotometric methodologies were applied to estimate a degree of binding (DB) of the investigated compounds with heparin. This method is based on the absorption measurements of water solution of the investigated compound before and after a contact with heparin. The concentration was adjusted such that the absorbance in the region near the absorption maximum was around 1. The absorption spectra was collected for these prepared solutions. The same solutions of the investigated pyridinium salts were also incubated for 5 minutes with sepharose immobilized heparin (Heparin Sepharose CL-6B, Amersham Biosciences AB, Sweden) added in amount of 25 mg/mL. The suspensions of immobilized heparin with the analyzed compounds were then placed into Eppendorf microtubes and centrifuged at 13000 g for 4 minutes. The resulting clear solution over the sediment was introduced into a cuvette, and the absorption spectrum was measured. The degree of binding was estimated based on comparison of integrated area under the absorption curve for the solutions incubated and non-contacted with heparin.
DB was calculated according to the equation (1):
where: DB=degree of binding,
IA=integrated area under absorption curve for sample without contact with immobilized heparin,
IAHEP=integrated area under absorption curve for sample incubated with immobilized heparin.

Row | Degree of binding, [%] | SMILES
1 | 20-45% | CC(=O)c1ccc[n+](C)c1 [Compound 5, 1-Methyl-3-acetylpyridine]
2 | 20-45% | CCC[n+]1cccc(C(N)=O)c1 [Compound 6, 1-Propylnicotinamide]
3 | <20% | C[n+]1cccc(C(=O)[O-])c1 [Compound 7, Trigonelline]
4 | <20% | NC(=O)c1cccnc1 [Compound 8, Nicotinamide]

Second part, the compound before the results:

Row | SMILES | Degree of binding, [%]
5 | C[n+]1cccc(C(N)=O)c1 [Compound 1, 1-Methylnicotinamide] | >45%
6 | CNC(=O)c1ccc[n+](C)c1 [Compound 2, 1,N′-Dimethylnicotinamide] | 20-45%
7 | CCN(CC)C(=O)c1ccc[n+](C)c1 [Compound 3, 1-Methyl-N′,N′-diethylnicotin-amide] | 20-45%
8 | C[n+]1cccc(C(=O)NCO)c1 [Compound 4, 1-Methyl-N′-(hydroxymethyl)-nicotinamide] | 20-45%

Assay: Solubility in water
Assay type: physicochemical
Settings: not given

Row | SMILES | solubility [mg/mL]
9 | C[n+]1cccc(C(N)=O)c1 [Compound 1, 1-Methylnicotinamide] | > 600
